Target: T1, human 11β-HSD1 (Homo sapiens, UniProt P28845)
T1 construct: expressed in transfected cells; host or cells: CHO cells (microsomes)
Test: Inhibition of microsomal preparation of 11β-HSD1 (SPA, Biological Test Example 1)
Type: biochemical
Settings: for inhibition at 0.1 µM: 100 nM; for IC50: microsomes from CHO cells overexpressing human 11β-HSD1, read-out: IC50 Range; for inhibition at 0.111 µM: 111 nM
Protocol: The inhibition of microsomal preparation of 11β-HSD1 by compounds of the invention was measured essentially as previously described (K. Solly, S. S. Mundt, H. J. Zokian, G. J. Ding, A. Hermanowski-Vosatka, B. Strulovici, and W. Zheng, High-Throughput Screening of 11-Beta-Hydroxysteroid Dehydrogenase Type 1 in Scintillation Proximity Assay Format. Assay Drug Dev Technol 3 (2005) 377-384). All reactions were carried out at rt in 96 well clear flexible PET Microbeta plates (PerkinElmer). The assay begins by dispensing 49 μl of substrate solution (50 mM HEPES, pH 7.4, 100 mM KCl, 5 mM NaCl, 2 mM MgCl2, 2 mM NADPH and 160 nM [^3H]cortisone (1 Ci/mmol)) and mixing in 1 μL of the test compounds in DMSO previously diluted in half-log increments (8 points) starting at 0.1 mM. After a 10 minute pre-incubation, 50 μL of enzyme solution containing microsomes isolated from CHO cells overexpressing human 11β-HSD1 (10-20 μg/ml of total protein) was added, and the plates were incubated for 90 minutes at rt. The reaction was stopped by adding 50 μl of the SPA beads suspension containing 10 μM 18β-glycyrrhetinic acid, 5 mg/ml protein A coated YSi SPA beads (GE Healthcare) and 3.3 μg/ml of anti-cortisol antibody (East Coast Biologics) in Superblock buffer (Bio-Rad). The plates were shaken for 120 minutes at rt, and the SPA signal corresponding to [^3H]cortisol was measured on a Microbeta plate reader.

T1 sequence (P28845 whole entry): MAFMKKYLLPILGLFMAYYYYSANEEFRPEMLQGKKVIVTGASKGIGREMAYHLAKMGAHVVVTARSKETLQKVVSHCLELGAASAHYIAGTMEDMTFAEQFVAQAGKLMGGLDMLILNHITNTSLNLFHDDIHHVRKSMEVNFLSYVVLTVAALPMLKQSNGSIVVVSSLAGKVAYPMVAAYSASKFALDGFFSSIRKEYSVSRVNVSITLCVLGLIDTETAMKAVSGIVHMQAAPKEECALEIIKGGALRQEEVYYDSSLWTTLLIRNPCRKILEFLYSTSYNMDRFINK

Row | Structure (SMILES) | inhibition at 0.1 µM [%] | IC50 [nM] | inhibition at 0.111 µM [%]
1 | CC1(C)NC(=O)C2(CCN(C(=O)/C=C/c3ccccc3C(F)(F)F)CC2)c2ccccc21 [EXAMPLE 43, (E)-1,1-dimethyl-1′-(3-(2-(trifluoromethyl)phenyl)acryloyl)-1H-spiro[isoquinoline-4,4′-piperidin]-3(2H)-one] | 90.6 | < 100 | 
2 | COc1ccc2c(c1)CCNC21CCN(C(=O)Cc2ccccc2C(F)(F)F)CC1 [EXAMPLE 44, 1-(6-methoxy-3,4-dihydro-2H-spiro[isoquinoline-1,4′-piperidine]-1′-yl)-2-(2-(trifluoromethyl)phenyl)ethanone] |  | < 100 | 69.9
3 | O=C1NC2(CCN(C(=O)Cc3ccccc3C(F)(F)F)CC2)c2c(Cl)cccc21 [EXAMPLE 45, 7-chloro-1′-(2-(2-(trifluoromethyl)phenyl)acetyl)spiro[isoindoline-1,4′-piperidin]-3-one] |  | 100 to 1000 | 43.2
4 | O=C(Cc1ccccc1C(F)(F)F)N1CCC2(CC1)C(=O)Nc1ccccc12 [EXAMPLE 47, 1′-(2-(2-(trifluoromethyl)phenyl)acetyl)spiro[indoline-3,4′-piperidin]-2-one] |  | < 100 | 83.3
5 | CN1C(=O)C2(CCN(C(=O)Cc3ccccc3C(F)(F)F)CC2)c2ccccc21 [EXAMPLE 48, 1-methyl-1′-(2-(2-(trifluoromethyl)phenyl)acetyl)spiro[indoline-3,4′-piperidin]-2-one] | 80.6 | < 100 | 86.3
6 | O=C1NC2(CCN(C(=O)Cc3ccccc3C(F)(F)F)CC2)c2c(Br)cccc21 [EXAMPLE 49, 7-bromo-1′-(2-(2-(trifluoromethyl)phenyl)acetyl)spiro[isoindoline-1,4′-piperidin]-3-one] |  | 100 to 1000 | 49.2
7 | O=C1NC2(CCN(C(=O)Cc3ccccc3C(F)(F)F)CC2)c2c(Cl)cc(Cl)cc21 [EXAMPLE 50, 5,7-dichloro-1′-(2-(2-(trifluoromethyl)phenyl)acetyl)spiro[isoindoline-1,4′-piperidin]-3-one] |  | 100 to 1000 | 68.9
8 | O=C(O)CC1CC2(CCN(C(=O)Cc3ccccc3C(F)(F)F)CC2)c2c(Cl)cccc21 (stereo not drawn) [EXAMPLE 51, 2-(7-chloro-1′(2-(2-(trifluoromethyl)phenyl)acetyl)-2,3-dihydrospiro[indene-1,4′-piperidine]-3-yl)acetic acid] | 76.8 | < 100 | 
9 | O=C(O)CC1CC2(CCN(C(=O)Cc3ccccc3OC(F)(F)F)CC2)c2c(Cl)cccc21 (stereo not drawn) [EXAMPLE 52, 2-(7-chloro-1′-(2-(2-(trifluoromethoxy)phenyl)acetyl)-2,3-dihydrospiro[indene-1,4′-piperidine]-3-yl)acetic acid] | 61.2 | < 100 | 
10 | O=C(O)CC1CC2(CCN(C(=O)Cc3ccc(F)cc3C(F)(F)F)CC2)c2c(Cl)cccc21 (stereo not drawn) [EXAMPLE 53, 2-(7-chloro-1′(2-(4-fluoro-2-(trifluoromethyl)phenyl)acetyl)-2,3-dihydrospiro[indene-1,4′-piperidine]-3-yl)acetic acid] | 67.2 | < 100 | 
11 | O=C(O)CC1CC2(CCN(C(=O)Cc3ccc(Cl)cc3C(F)(F)F)CC2)c2c(Cl)cccc21 (stereo not drawn) [EXAMPLE 54, 2-(7-chloro-1′(2-(4-chloro-2-(trifluoromethyl)phenyl)acetyl)-2,3-dihydrospiro[indene-1,4′-piperidine]-3-yl)acetic acid] | 71.7 | < 100 | 
12 | CN1C(=O)c2cccc(Cl)c2C12CCN(C(=O)CCc1ccccc1C(F)(F)F)CC2 [EXAMPLE 61, 7-chloro-2-methyl-1′-(3-(2-(trifluoromethyl)phenyl)propanoyl)spiro[isoindoline-1,4′-piperidin]-3-one] | 93.3 | < 100 | 96.7
13 | COc1ccc2c(c1)CCNC21CCN(C(=O)CCc2ccccc2C)CC1 [EXAMPLE 63, 1-(6-methoxy-3,4-dihydro-2H-spiro[isoquinoline-1,4′-piperidine]-1′-yl)-3-o-tolylpropane-1-one] |  | 100 to 1000 | 22.5
14 | O=C1NC2(CCN(C(=O)CCc3ccccc3C(F)(F)F)CC2)c2c(Cl)cccc21 [EXAMPLE 65, 7-chloro-1′-(3-(2-(trifluoromethyl)phenyl)propanoyl)spiro[isoindoline-1,4′-piperidin]-3-one] |  | < 100 | 87.7
15 | O=C1NC2(CCN(C(=O)CCc3ccccc3C(F)(F)F)CC2)c2c(Br)cccc21 [EXAMPLE 71, 7-bromo-1′-(3-(2-(trifluoromethyl)phenyl)propanoyl)spiro[isoindoline-1,4′-piperidin]-3-one] |  | < 100 | 93.9
16 | O=C1NC2(CCN(C(=O)CCc3ccccc3C(F)(F)F)CC2)c2c(Cl)cc(Cl)cc21 [EXAMPLE 72, 5,7-dichloro-1′-(3-(2-(trifluoromethyl)phenyl)propanoyl)spiro[isoindoline-1,4′-piperidin]-3-one] |  | < 100 | 82.4

More lines, now with the values ahead:

Row | inhibition at 0.1 µM [%] | IC50 [nM] | inhibition at 0.111 µM [%] | Structure (SMILES)
17 |  | < 100 | 76.5 | CN1C(=O)c2ccccc2C12CCN(C(=O)CCc1ccccc1C(F)(F)F)CC2 [EXAMPLE 55, 2-methyl-1′-(3-(2-(trifluoromethyl)phenyl)propanoyl)spiro[isoindoline-1,4′-piperidin]-3-one]
18 |  | < 100 | 92.7 | CCOC(=O)CC1CC2(CCN(C(=O)CCc3ccccc3C(F)(F)F)CC2)c2c(Br)cccc21 (stereo not drawn) [EXAMPLE 56, Ethyl 2-(7-bromo-1′-(3-(2-(trifluoromethyl)phenyl)propanoyl)-2,3-dihydrospiro[indene-1,4′-piperidine]-3-yl)acetate]
19 |  | 100 to 1000 | 37.6 | CC(C)(C)OC(=O)N1Cc2ccccc2C2(CCN(C(=O)CCc3ccccc3C(F)(F)F)CC2)C1 [EXAMPLE 57, tert-butyl 1′-(3-(2-(trifluoromethyl)phenyl)propanoyl)-1H-spiro[isoquinoline-4,4′-piperidine]-2(3H)-carboxylate]
20 | 97.1 | < 100 | 87.4 | O=C(O)CC1CC2(CCN(C(=O)CCc3ccccc3C(F)(F)F)CC2)c2c(Br)cccc21 (stereo not drawn) [EXAMPLE 58, 2-(7-bromo-1′-(3-(2-(trifluoromethyl)phenyl)propanoyl)-2,3-dihydrospiro[indene-1,4′-piperidine]-3-yl)acetic acid]
21 |  | < 100 | 66.6 | O=C(CCc1ccccc1C(F)(F)F)N1CCC2(CC1)CNCc1ccccc12 [EXAMPLE 59, 1-(2,3-dihydro-1H-spiro[isoquinoline-4,4′-piperidine]-1′-yl)-3-(2-(trifluoromethyl)phenyl)propan-1-one]
22 |  | < 100 | 92.6 | CS(=O)(=O)N1Cc2ccccc2C2(CCN(C(=O)CCc3ccccc3C(F)(F)F)CC2)C1 [EXAMPLE 60, 1-(2-(methylsulfonyl)-2,3-dihydro-1H-spiro[isoquinoline-4,4′-piperidine]-1′-yl)-3-(2-(trifluoromethyl)phenyl)propan-1-one]
23 |  | < 100 | 87.2 | COc1ccc2c(c1)CCNC21CCN(C(=O)CCc2ccccc2C(F)(F)F)CC1 [EXAMPLE 62, 1-(6-methoxy-3,4-dihydro-2H-spiro[isoquinoline-1,4′-piperidine]-1′-yl)-3-(2-(trifluoromethyl)phenyl)propan-1-one]
24 |  | < 100 | 100 | O=C(CCc1ccccc1C(F)(F)F)N1CCC2(CC1)CC(O)c1cccc(Br)c12 (stereo not drawn) [EXAMPLE 64, 1-(7-bromo-3-hydroxy-2,3-dihydrospiro[indene-1,4′-piperidine]-1′-yl)-3-(2-(trifluoromethyl)phenyl)propan-1-one]
25 |  | < 100 | 92.1 | NC1CC2(CCN(C(=O)CCc3ccccc3C(F)(F)F)CC2)c2c(Br)cccc21 (stereo not drawn) [EXAMPLE 66, 1-(3-amino-7-bromo-2,3-dihydrospiro[indene-1,4′-piperidine]-1′-yl)-3-(2-(trifluoromethyl)phenyl)propan-1-one]
26 | 100 | < 100 |  | O=C(CCc1ccccc1C(F)(F)F)N1CCC2(CC1)C(=O)Nc1ccccc12 [EXAMPLE 67, 1′-(3-(2-(trifluoromethyl)phenyl)propanoyl)spiro[indoline-3,4′-piperidin]-2-one]
27 |  | < 100 | 81.5 | CNC(=O)N1Cc2ccccc2C2(CCN(C(=O)CCc3ccccc3C(F)(F)F)CC2)C1 [EXAMPLE 68, N-methyl-1′-(3-(2-(trifluoromethyl)phenyl)propanoyl)-1H-spiro[isoquinoline-4,4′-piperidine]-2(3H)-carboxamide]
28 | 93.5 | < 100 | 93.8 | CN1C(=O)C2(CCN(C(=O)CCc3ccccc3C(F)(F)F)CC2)c2ccccc21 [EXAMPLE 69, 1-methyl-1′-(3-(2-(trifluoromethyl)phenyl)propanoyl)spiro[indoline-3,4′-piperidin]-2-one]

From patent publication US8383629B2, “Inhibitors of 11β-hydroxysteroid dehydrogenase type 1” (Vitae Pharmaceuticals, Inc., priority 2008, dated 2013)
